Assay results published in patent US12042481B2, “Use of (1R,5S)-(+)-1-(naphthalen-2-yl)-3-azabicyclo[3.1.0]hexane in the treatment of conditions affected by monoamine neurotransmitters” (priority 2011, dated 2024).
pIC50: −log10 of the molar value.

Tests used:
[1] = system: male CD-1 (Crl.) derived mice; assay: Mouse tail suspension test; format: in vivo
Method: The behavioral effects of (1R,5S)-(+)-1-(naphthalen-2-yl)-3-azabicyclo[3.1.0]hexane were evaluated in a model predictive of antidepressant activity, the mouse tail suspension test (Cryan and Mombereau, 2004).
For the tail test suspension test, male CD-1 (Crl.) derived mice weighing 20-26 g were provided by BioLasco Taiwan (Charles River Laboratories Technology Licensee). All animals were maintained in a controlled temperature (23° C.-24° C.) and humidity (60%-70%) environment with 12 hours light dark cycles for at least one week prior to use. For the tail suspension test, (1R,5S)-(+)-1-(naphthalen-2-yl)-3-azabicyclo[3.1.0]hexane was administered orally at dose from 10-40 mg/kg p.o. to groups of 10 CD-1 derived male mice by MDS Pharma Services, Taipei, Taiwan 112, R. O. C. (1R,5S)-(+)-1-(naphthalen-2-yl)-3-azabicyclo[3.1.0]hexane was dissolved in 2% Tween 80 and was administered at 10 ml/kg 60 minutes prior to the tail suspension test. During the test, the mice were suspended on the edge of a shelf 58 cm above a table top by adhesive tape placed approximately 1 cm from the tip of the tail. The duration of immobility was recorded for a period of 5 minutes (during 2-7 minutes of the tail suspension). The duration of the effects of (1R,5S)-(+)-1-(naphthalen-2-yl)-3-azabicyclo[3.1.0]hexane was also evaluated in the tail suspension test by varying pretreatment time.

[2] = system: 6-OHDA-lesioned juvenile rats; assay: Locomotor activity of juvenile rats with neonatal 6-OHDA lesions (model of ADHD); format: in vivo, rat
Method: The behavioral effects of (1R,5S)-(+)-1-(naphthalen-2-yl)-3-azabicyclo[3.1.0]hexane were evaluated in a model of ADHD, which can be simulated in juvenile rates with neonatal 6-hydroxydopamine (6-OHDA) lesions (Davids et al., 2003). In this animal model, the NE neurons are protected from the neurotoxic effects of 6-OHDA by pretreatment with the NE transporter inhibitor desipramine, so the NE system is largely intact and can respond to NE transporter inhibitors (Davids et al., 2002). Furthermore, the 6-OHDA lesions produce learning and memory deficits in learning models including the T maze, and active and passive avoidance tasks (Shaywitz et al., 1978; Wool et al., 1987; Takasuna and Iwasaki, 1996). Performance in these learning and memory models was improved by administration of stimulants (Shaywitz et al., 1978; Wool et al., 1987). Thus, this model incorporates both hyperactivity and learning deficits found in ADHD.
Methods of lesioning neonatal rats with 6-OHDA were carried out as detailed in Zhang et al. (2001). Briefly, on postnatal day 1 (PD 1), male Sprague-Dawley rat pups were randomly assigned to a nursing dam (10/dam). On PD 5, pups receive a subcutaneous injection of 25 mg/kg desipramine hydrochloride to protect noradrenergic neurons, followed in 45 min. by randomly assigned intracisternal injection of vehicle or 6-OHDA hydrobromide (100 μg free base) under hypothermic anesthesia. Pups were returned to nursing dams immediately after the intracranial injections. Locomotor activity was monitored individually for 90 min. in the periadolescent period on PD 25, using a microcomputer controlled infrared photobeam activity monitoring system. Locomotor activity was defined as breaking of consecutive photobeams and the activity accumulated in 5 minute bins. Behavioral testing was conducted in a novel environment (transparent plastic cages containing fresh bedding) within a grid of horizontal infrared beams. Each dose of (1R,5S)-(+)-1-(naphthalen-2-yl)-3-azabicyclo[3.1.0]hexane (1, 3 and 10 mg/kg) or methylphenidate (3 mg/kg) was dissolved in saline and given i.p. immediately prior to testing. The effects of sham versus 6-OHDA lesions on dopamine neurons in rats were quantified as decrements of DA transporters labeled with [31-1]2-(3-carbomethoxy-3-β-[4′-iodophenyl]tropane ([^3H]β-CIT), a selective DA transporter radioligand (Kula et al. 1999). Sections were preincubated (60 min., room temp [RT]) in 50 mM Tris-HCl buffer (pH 7.7) containing 120 mM NaCl and 4 mM MgCl2, then in fresh buffer (60 min) containing 2 nM [3H](3-CIT. Nonspecific binding was defined with 1 μM GBR-12909. Slides were then washed (2×5 min) in ice-cold buffer, dipped in ice-cold water, and air-dried. Radiolabeled slides and calibrated [^3H]standards were exposed to [^3H]sensitive films for 10-14 d at 4° C. Tritium-sensitive Hyperfilms were developed and fixed in Kodak D-19 for 5 min. at RT. Images were quantified with a computer-controlled MCID image analyzer. Brain regions of interest were outlined and their optical density was measured with two sections representing total binding, with two samples representing nonspecific binding. Optical density of sampled regions was measured and the amount of ligand bound within each area was calculated as nCi/mg tissue. Mean values of non-specific binding in each region were subtracted from the mean total binding to determine specific binding, which was converted into fmol/mg of radioligand bound.

rats = assay: Forced swim test in rats; format: in vivo, rat; details: 40 mg/kg p.o., data not shown
[3] = biological target: T1, recombinant human 5-HT transporter (Homo sapiens, UniProt P31645); assay: Inhibition of [3H]serotonin uptake in HEK-293 cells transfected with the 5-HT uptake transporter; format: cell-based
T1 construct: host or cells: HEK-293
T1 sequence (P31645 whole entry): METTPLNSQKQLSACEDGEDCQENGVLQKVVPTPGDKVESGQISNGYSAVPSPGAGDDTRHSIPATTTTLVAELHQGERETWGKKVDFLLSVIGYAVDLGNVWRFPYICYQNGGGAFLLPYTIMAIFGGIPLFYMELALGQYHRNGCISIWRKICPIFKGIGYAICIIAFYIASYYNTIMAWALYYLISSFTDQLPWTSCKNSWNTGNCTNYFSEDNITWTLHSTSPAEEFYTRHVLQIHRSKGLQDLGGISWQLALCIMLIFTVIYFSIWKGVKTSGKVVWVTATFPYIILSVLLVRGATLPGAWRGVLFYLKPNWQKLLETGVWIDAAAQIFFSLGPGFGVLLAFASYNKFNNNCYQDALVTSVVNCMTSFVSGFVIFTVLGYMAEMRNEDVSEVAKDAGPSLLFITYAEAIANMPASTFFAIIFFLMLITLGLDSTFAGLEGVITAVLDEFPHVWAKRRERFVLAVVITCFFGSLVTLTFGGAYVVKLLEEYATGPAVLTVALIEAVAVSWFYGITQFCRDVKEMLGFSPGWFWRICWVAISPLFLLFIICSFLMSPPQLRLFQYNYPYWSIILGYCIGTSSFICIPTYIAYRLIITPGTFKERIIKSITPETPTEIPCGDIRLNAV
Method: The ability of (1R,5S)-(+)-1-(naphthalen-2-yl)-3-azabicyclo[3.1.0]hexane for inhibiting transport of norepinephrine (NE) and/or dopamine (DA) and/or serotonin (5-HT) was evaluated using cell lines (such as the HEK 293 cell line) that stably express recombinant human NE, DA, and 5-HT transporters, respectively. Techniques for stably transfecting mammalian cell lines with neurotransmitter transporters and measuring the effects of drugs on amine uptake have been described in the literature (e.g., Eshleman A J, J Pharmacol Exp Ther 289:877-885, 1999) and are well known to those skilled in the art
Monoamine uptake was determined in MDCK, CHO-K1, and HEK-293 cell lines respectively transfected with NE, DA, and 5-HT uptake transporters by MDS Pharma Services (Taipei, Taiwan 112, R. O. C.). The cells were incubated in 5 mM Tris-HCl, and 7.5 mM HEPES buffer, pH 7.1, containing 120 mM NaCl, 5.4 mM KCl, 1.2 mM CaCl2, 1.2 mM MgSO4, 5 mM D-glucose, and 1 mM Ascorbic Acid. The cellular homogenates were incubated with radioligands and various concentrations of drugs for 10 minutes at 25° C. The [^3H]-radioligands incorporated into the cells were determined according to published methods using liquid scintillation counting (Perovic and Müller 1995; Eshleman et al., 1999). […]

Structure (SMILES): c1ccc2cc([C@]34CNC[C@H]3C4)ccc2c1 [(1R,5S)-(+)-1-(naphthalen-2-yl)-3-azabicyclo[3.1.0]hexane]
- immobility ([1]; 20 mg/kg p.o., at 30 minutes): 84 % of control
- immobility ([1]; 20 mg/kg p.o., at 60 minutes): 82 % of control
- immobility ([1]; 20 mg/kg p.o., at 120 minutes): 75 % of control
- immobility ([1]; 20 mg/kg p.o., at 240 minutes): 47 % of control
- immobility ([1]; 40 mg/kg p.o., 60 minutes prior to test): 87 % of control
- duration of effect ([1]; oral): over 4 hours
- efficacy compared with desipramine (30 mg/kg p.o.) ([1]; oral): equivalent to the tricyclic antidepressant desipramine
- minimal effective dose for reducing time immobilized ([1]; oral, 60 minutes prior to test): 20 mg/kg
- time over which locomotor activity was significantly reduced ([2]; 1 mg/kg i.p., PD 25, 90 min test, vs saline): 35 min
- time over which locomotor hyperactivity was significantly attenuated ([2]; 3 mg/kg i.p., PD 25, 90 min test): 45 min
- time over which locomotor activity was significantly reduced ([2]; 10 mg/kg i.p., PD 25, 90 min test): 90 min
- effect on locomotor hyperactivity ([2]; 1, 3 and 10 mg/kg i.p.): dose-dependently inhibited the locomotor hyperactivity
- locomotor activity (FIGS. 7A and 7B) ([2]; 6-OHDA-lesioned juvenile rats at PD25, p<0.05 versus vehicle): reduced locomotor activity
- immobility in the forced swim test (rats): reduced immobility
- pIC50 [3]: 7.08
